The values that follow are results of earlier work, collected in patent publication US6652882B1, “Controlled release formulation containing bupropion” (Intellipharmaceutics Corp, priority 1997, dated 2003).

The conditions of data set [1]: oral administration; mammals such as rats and dogs.
The conditions of data set [2]: during storage.

The structures appear in SMILES notation.

`CC(NC(C)(C)C)C(=O)c1cccc(Cl)c1` (racemic) [Bupropion, (±)-2-(tert-butylamino)3′-chloropropiophenone]: the absolute bioavailability in data set [1] is 5% to 20. The stability on storage result in data set [2] is “subject to hydrolytic decomposition during storage”.
